This is an account of results in publication PMC7099597 (ACS Central Science, 2020).

The test system of assay [1] is 8B10 scFv Rip-3 (anti-MPTS). Put plainly: MPTS fluorescence quenching, protein titration. The format is binding.
In assay [2] the test system is 4D5Flu Rip-3 (anti-fluorescein scFv). Put plainly: dose-dependent rescue of fluorescein quenching. The class given is binding, synthetic construct.

In assay [1], `COc1cc(S(=O)(=O)O)c2ccc3c(S(=O)(=O)O)cc(S(=O)(=O)O)c4ccc1c2c43` [MPTS, 8-methoxypyrene-1,3,6-trisulfonic acid] gave an EC50 of 1 µM.

`c1ccc(COc2ccc3cn[nH]c3c2)cc1` [Stitch-3, 6-(benzyloxy)indazole] displayed a concentration giving a half-maximal response (EC50) in assay [2] of 16 µM.
